Literature values, collected in patent publication US11576379B2, “Antimicrobial composition comprising alkylated polyvinylpyrrolidone polymer” (The Procter & Gamble Company, priority 2019, dated 2023).

## CC(=O)O.CC(=O)O.NC(=N\CCCCCC/N=C(N)/N=C(\N)Nc1ccc(Cl)cc1)/N=C(\N)Nc1ccc(Cl)cc1 [Chlorhexidine diaceate, Chlorhexidine diacetate]
  Solubility in water: ~1%
